Assay results: US20050148034A1, “Methods for identification of modulators of angiogenesis, compounds discovered thereby, and methods of treatment using the compounds” (priority 2002, published 2005)

Legend:
[1] = tested on: embryonic-like stem cells derived from placenta; test: Marker expression of cultured embryonic-like stem cells (staining score, Table 2); format: cell-based, human; set-up: key to SMC-specific Myosin HC / GFAP / CD34+ / CD45+: −: no staining; +/−: <20% staining; +: 20-50% staining; ++: 50-75% staining; +++: >75% staining; conditions: for CD34+ / CD45+ / GFAP / Nestin / SMC-specific Myosin HC: placental conditioned media, fourteen days of culture
Procedure: The following experiments evaluated the effects of Thalomid™, Actimid™ and Revimid™ on the morphological differentiation of embryonic-like stem cells derived from placenta. The morphological differentiation of cultured embryonic-like stem cells was evaluated after fourteen days of culture in the presence of placental conditioned medium and with DMSO (control), EGCF, Thalomid™, Actimid™ or Revimid™.
Embryonic-like stem cells were isolated from placenta as described above in Section 5.4. The embryonic-like stem cells were cultured using the culture conditions described above.
(§1) The cells were scored for the expression of CD34 (a marker of early hematopoietic progenitor cells; also an endothelial cell marker), CD45 (a marker of all hematopoietic cells except erythrocytes), CD105 (a marker of proliferating endothelial cells), smooth muscle cell (SMC)-specific myosin heavy chain, nestin ([…]), and glial fibrillary acidic protein (GFAP). Ratios of CD34 cells/TNC (Total Number of Cells), CD45 cells/TNC and CD105 cells/TNC were also determined.
In Table 2, the scoring was as follows: • −: no staining; +/−: <20% staining+: 20-50% staining; ++: 50-75% staining; +++: >75% staining.

[2] = tested on: embryonic-like stem cells derived from placenta; test: Immunostaining for CD34, CD45 and CD105 in cultured placental stem cells (ratios to TNC, Table 3); format: cell-based, human; conditions: for CD34/TNC / CD45/TNC / CD105/TNC: placental conditioned media, 14 days in culture
Procedure: as §1
In another experiment, the results of which are summarized in Table 3, embryonic-like stem cells derived from placenta were cultured, using the conditions described in the umbilical vessel ring assay described above, in the presence of placenta-conditioned medium with DMSO (negative control), Thalomid™, Actimid™ or Revimid™. After 14 days in culture, the cells were then immunostained for expression of CD34+, CD45+ and CD 105+.

[3] = tested on: embryonic-like stem cells derived from placenta; test: Total vessel area/field and branching/bifurcation of cultured placental embryonic-like stem cells (Table 4); format: cell-based, human; set-up: key to Branching/Bifurcation (+/−): +: a branch or bifurcation was observed; −: no branch or bifurcation was observed
Procedure: In another experiment, the results of which are summarized in Table 4, embryonic-like stem cells derived from placenta were cultured, using the culture conditions described above, and in the presence of EGCF, DMSO, Thalomid™, Actimid™ or Revimid™.
A “+” means that a branch or bifurcation was observed and a “−” means that no branch or bifurcation was observed. […] See also FIGS. 3A, 3B

[4] = tested on: rat aortic rings; test: Rat aortic angiogenesis assay; format: cell-based, Sprague Dawley rats
Procedure: Twelve well tissue culture grade plates were covered with 250 μl of Matrigel and allowed to gel for 30-45 min at 370 C, 5% Co2. Thoracic aortas were excised from eight to ten week old male Sprague Dawley rats and the fibroadipose tissue was removed. The aortas were sectioned into 1 mm long sections, rinsed eight times with EGM-2 (Clonetics Corp), placed on the Matrigel coated wells, covered with additional 250 μl Matrigel, and allowed to gel for 30-45 min at 370 C. The rings were cultured for 24 hours in 2 ml of EGM-2. After 24 hours, recombinant murine endostatin was reconstituted in EBM and added as a single treatment on day 1. Thalidomide was added at different concentrations (1 μg/ml, 5 μg/ml, 10 μg/ml, 50 μg/ml and 100 μg/ml) in the presence or absence of rabbit microsomes as noted in the Table 5. Aortic rings were photographed on days.

[5] = tested on: human umbilical cord vessel rings; test: Human angiogenesis assay (umbilical artery vessel rings in Matrigel); format: cell-based; conditions: for Microvessel Growth (% Inhibition): vs 0.1% DMSO, three weeks, average of two rings
Source text: Fresh human umbilical cords were collected by trained medical personnel under fill donor informed consent from local hospitals. The cords were transported and treated within three hours. Umbilical cords and vessel lumens were rinsed with chilled basal nutrient medium. The artery was removed from the cord using mechanical means, forceps and small surgical scissors in an aseptic field. The vessel was cleaned of connective tissue and vessel rings were cut cross-wise in a length of 1 mm. The rings were placed into EGM-2 medium (Clonetics Corp.) in a 50 ml conical bottom tube and stored at 4° C. Six-well tissue culture plates were covered with […] of Matrigel and allowed to gel for 30-45 min at 37° C., under 5% CO2. The vessel rings were rinsed in EGM-2 medium and placed on the Matrigel-coated wells, covered with additional 250 μl Matrigel, and allowed to gel for 30-45 min at 37° C. (see FIG. 6). The vessels were cultured for 24 hours in 4 ml of EGM-2 to allow the tissue to adapt to its new environment. After 24 hours incubation, the rings were treated either with 0.1% DMSO as control, or different concentrations of compounds (thalidomide or CC4047). Culture medium was changed twice per week for total of three weeks.
The effects of compounds on cultured vessel rings were compared with the effect of DMSO on vessel rings. The results were analyzed using Image-Pro® Plus software (MediaCybernetics, Inc. Carlsbad, Calif.).
These experiments were done in duplicates and the results are the average of two rings in same experiment. A different concentration of Fumagillin is used as positive control in this experiment.

Q: How did the “CD34+” value ([1]; 10 μg/mL) turn out when `O=C1CCC(N2C(=O)c3ccccc3C2=O)C(=O)N1` (centres unmarked) [Thalomid, thalidomide, reference compound] was run?
A: +/− (<20% staining)

Q: What about the “CD45+” value ([1]; 10 μg/mL) of the same compound?
A: + (20-50% staining)

Q: And the GFAP ([1]; 10 μg/mL)?
A: −

Q: And the Nestin ([1]; 10 μg/mL)?
A: + (20-50% staining)

Q: What about the “SMC-specific Myosin HC” value ([1]; 10 μg/mL) of the same compound?
A: −

Q: What about the “CD34+” value ([1]; 100 μg/mL) of the same compound?
A: −

Q: What about the “CD45+” value ([1]; 100 μg/mL) of the same compound?
A: + (20-50% staining)

Q: What about the GFAP ([1]; 100 μg/mL) of the same compound?
A: + (20-50% staining)

Q: What about the Nestin ([1]; 100 μg/mL) of the same compound?
A: + (20-50% staining)

Q: What about the “SMC-specific Myosin HC” value ([1]; 100 μg/mL) of the same compound?
A: −

Q: What about the “numbers of cells expressing CD34, CD45 and smooth muscle cell (SMC)-specific myosin heavy chain” value ([1]; summary of Table 2) of the same compound?
A: decreased

Q: And the “numbers of cells expressing nestin and glial fibrillary acidic protein (GFAP)” value ([1]; summary of Table 2)?
A: increased

Q: What about the CD34/TNC ([2]; 10 μg/ml) of the same compound?
A: 0.64

Q: And the CD45/TNC ([2]; 10 μg/ml)?
A: 3.87

Q: And the CD105/TNC ([2]; 10 μg/ml)?
A: 6.8

Q: And the CD34/TNC ([2]; 100 μg/ml)?
A: 0.38

Q: And the CD45/TNC ([2]; 100 μg/ml)?
A: 4.21

Q: And the CD105/TNC ([2]; 100 μg/ml)?
A: 7.0

Q: And the “numbers of cells expressing CD34, CD45 and CD 105” value ([2]; summary of Table 3)?
A: decrease

Q: What about the “Branching/Bifurcation (+/−)” value ([3]; 1 μg/ml) of the same compound?
A: −

Q: What about the “Total Vessel Area/Field (% Coverage)” value ([3]; 1 μg/ml) of the same compound?
A: 24.1 +/− 4.4 % Coverage

Q: What about the “Branching/Bifurcation (+/−)” value ([3]; 10 μg/ml) of the same compound?
A: −

Q: What about the “Total Vessel Area/Field (% Coverage)” value ([3]; 10 μg/ml) of the same compound?
A: 14.8 +/− 7.2 % Coverage

Q: What about the “branching and/or bifurcation exhibited by the cells” value ([3]; summary of Table 4) of the same compound?
A: decreases the branching and/or bifurcation exhibited by the cells

Q: And the “total vessel area/field covered by the cells” value ([3]; summary of Table 4)?
A: decrease in the total vessel area/field covered by the cells

Q: And the “mean microvessel growth (% of control)” value ([4]; 10 μg/ml, + Rabbit microsomes)?
A: 16.6 % of control

Q: And the “mean microvessel growth (% of control)” value ([4]; 10 μg/ml, without microsomes)?
A: 60 % of control

Q: And the “mean microvessel growth (% of control)” value ([4]; 50 μg/ml, + Rabbit microsomes)?
A: 17.6 % of control

Q: What about the “mean microvessel growth (% of control)” value ([4]; 50 μg/ml, without microsomes) of the same compound?
A: 82 % of control

Q: And the “need of rabbit microsomes for inhibition of vessel formation” value ([4]; summary of Table 5)?
A: requires the addition of rabbit microsome in order to show efficient inhibition of vessel formation

Q: And the “Microvessel Growth (% Inhibition)” value ([5]; 0..1 μM)?
A: 40 % Inhibition

Q: What about the “Microvessel Growth (% Inhibition)” value ([5]; 1 μM) of the same compound?
A: 81.4 % Inhibition

Q: And the “Microvessel Growth (% Inhibition)” value ([5]; 10 μM)?
A: 100 % Inhibition

Q: And the “formation of microvessel outgrowth” value ([5]; compared with DMSO treated samples)?
A: inhibited the formation of microvessel outgrowth in a dose dependent manner

Q: What about the “need of microsomes for activity” value ([5]; human ring assay, compared with rat ring results) of the same compound?
A: no need for either human or rabbit microsome
